Test results as given in US4259332A, “Novel taurine derivatives” (priority 1979, dated 1981).
Like-named read-outs stand apart in the source and are kept apart here.

Columns and labels:
[1] = type: in vivo, rat; conditions: fasted rats, oral, 225 mg/Kg acetylsalicylic acid
Protocol: Rats which had not been fed for 24 hours were used. The AST product was administered orally as the acid or the sodium salt at a dosage of 335 mg/Kg suspended in 1% carboxymethylcellulose. […] Both the methods of treatment and the observation time were identical for the 3 groups of animals.

[2] = Analgesic activity: convulsions produced by phenylquinone; type: in vivo, mouse; conditions: oral, ASA 200, AST 300 mg/Kg
Protocol: (A) Test of convulsions produced by phenylquinone injected into mice by the intraperitoneal route. The AST product was administered orally both in the acid form (AST Ac). and as the sodium salt (AST Na). It was compared with a molar equivalent dosage of acetylsalicylic acid and with a carboxymethylcellulose placebo. The convulsions were induced at varying intervals from the oral treatment counting from the first 20 minutes after the injection of phenylquinone.

[3] = Analgesic activity: mechanical pressure test on inflamed rat's paw; type: in vivo; conditions: oral, ASA 200, AST 300 mg/Kg
Protocol: (B) Mechanical pressure test on inflamed rat's paw. The AST product was administered both in the acid and sodium salt form by the oral method. It was compared with a molar equivalent dosage of acetylsalicylic acid and with a carboxymethylcellulose placebo. The inflammation of the paw was induced by a local injection of yeast simultaneously with the oral treatment with the drugs and the tenderness was measured in grams of mechanical pressure required to cause a reaction in the animal.

[4] = Edema resulting from yeast in the paw of the rat; type: in vivo; conditions: oral, ASA 200, AST 300 mg/Kg
Protocol: (A) Edema resulting from yeast in the paw of the rat. The AST product was administered orally both in the acid and sodium salt form. It was compared with a molar equivalent dose of acetylsalicylic acid and with carboxymethylcellulose placebo. The edema of the paw was induced with a local injection of the yeast simultaneously with the oral treatment with the drugs, and the volume of the paw was measured in hundredths of milliliter.

[5] = Edema as a result of nystatin in the rat's paw; type: in vivo; conditions: p.o.
Protocol: (B) Edema as a result of nystatin in the rat's paw. The long duration of this type of edema enabled the animals to be repeatedly treated in order to ascertain the presence if any of the protracted effect of the AST product also using parenteral administration. The comparison was carried out using a molar equivalent dose of acetylsalicylic acid administrated orally and with the carboxymethylcellulose placebo also only administered orally. The AST product was used in the acid form orally and in the salt form using intraperitoneal administration.
The dosages of the drugs, always proportional to one another, were varied from day to day, i.e.: the first day a dosage of 200 mg/Kg of ASA and 300 mg/Kg of AST; the second day a double dose of each; the third day a double dose of each divided into two equal components administered with a spacing of 9 hours (10 am and 7 pm respectively); the fourth day no treatment in order to check the length of the effect after the fourth administration.
The […] was injected into the paw on the night before the first treatment with the drugs and the volume of the paw was measured in hundredths of milliliter.

[6] = Antipyretic activity: pyrexia from subcutaneous yeast in the rat; type: in vivo; conditions: p.o., ASA 200, AST 300 mg/Kg
Protocol: Pyrexia from subcutaneous yeast in the rat. The AST product was administered orally in the acid from and the salt form with sodium, and by the intraperitoneal method in the salt form. It was compared with a molar equivalent dose of acetylsalicylic acid administered orally and with a carboxymethylcellulose placebo. The pyrexia was induced with a subcutaneous injection of yeast on the evening prior to the drug treatment, i.e. 16 hours before.

[7] = mouse, literature, cited from earlier work

CC(=O)Oc1ccccc1C(=O)O [ASA, acetylsalicylic acid, reference compound]
Haemorrhagic gastric ulcers [1]: 5 to 10 | Inhibition % of convulsions in respect of treatment with placebo ([2]; 1h): 23% | Inhibition % of convulsions in respect of treatment with placebo ([2]; 2h): 37% | Inhibition % of convulsions in respect of treatment with placebo ([2]; 4h): 17% | % Inhibition of the hyperalgesia in respect of treatment with placebo ([3]; 1h): 27% | % Inhibition of the hyperalgesia in respect of treatment with placebo ([3]; 5h): 0% | Inhibition of the edema with respect to treatment with placebo ([4]; 1h): 41 | Inhibition of the edema with respect to treatment with placebo ([4]; 3h): 51 | Inhibition of the edema with respect to treatment with placebo ([4]; 5h): 55 | % Inhibition of the edema in respect of treatment with placebo ([5]; 1st day, 2h after 1st dose, ASA 200, AST Ac 300 mg/Kg): 8% | % Inhibition of the edema in respect of treatment with placebo ([5]; 1st day, 4h after 1st dose, ASA 200, AST Ac 300 mg/Kg): 10% | % Inhibition of the edema in respect of treatment with placebo ([5]; 1st day, 8h after 1st dose, ASA 200, AST Ac 300 mg/Kg): 7% | % Inhibition of the edema in respect of treatment with placebo ([5]; 2nd day, 2h after 2nd dose, ASA 400, AST Ac 600 mg/Kg): 10% | % Inhibition of the edema in respect of treatment with placebo ([5]; 2nd day, 4h after 2nd dose, ASA 400, AST Ac 600 mg/Kg): 11% | % Inhibition of the edema in respect of treatment with placebo ([5]; 2nd day, 8h after 2nd dose, ASA 400, AST Ac 600 mg/Kg): 15% | % Inhibition of the edema in respect of treatment with placebo ([5]; 3rd day, 2h after 3rd dose, ASA 200, AST Ac 300 mg/Kg): 8% | % Inhibition of the edema in respect of treatment with placebo ([5]; 3rd day, 4h after 3rd dose, ASA 200, AST Ac 300 mg/Kg): 11% | % Inhibition of the edema in respect of treatment with placebo ([5]; 3rd day, 8h after 3rd dose, ASA 200, AST Ac 300 mg/Kg): 14% | % Inhibition of the edema in respect of treatment with placebo ([5]; 4th day, 13h after 4th dose, ASA 200, AST Ac 300 mg/Kg): 9% | % Inhibition of the edema in respect of treatment with placebo ([5]; 4th day, 17h after 4th dose, ASA 200, AST Ac 300 mg/Kg): 12% | % Inhibition of the edema in respect of treatment with placebo ([5]; 4th day, 23h after 4th dose, ASA 200, AST Ac 300 mg/Kg): 8% | % Inhibition of the pyrexia in respect of treatment with placebo ([6]; 1h): 78% | % Inhibition of the pyrexia in respect of treatment with placebo ([6]; 2h): 103% | % Inhibition of the pyrexia in respect of treatment with placebo ([6]; 4h): 114% | % Inhibition of the pyrexia in respect of treatment with placebo ([6]; 6h): 58% | % Inhibition of the pyrexia in respect of treatment with placebo ([6]; 8h): 45% | LD50 ([7]; intraperitoneal): 420 mg/kg | LD50 ([7]; oral): 1,050 mg/kg
